Test results: US20140296266A1, “THERAPEUTIC COMPOUNDS” (Gilead Sciences, Inc., priority 2013, published 2014)

Experiments:
HIV-IIIb = test: Test A: Antiviral Assay in MT4 Cells; assay type: cell-based, HIV-1; conditions: MT-4 cells mixed with HIV-IIIb (m.o.i. 0.003), 5 days, CellTiter-Glo, calculated from the dose response curve; for inhibition at 2 µM: Human immunodeficiency virus 1, IIIB, MT4, 120 h, read-out: % inhibition at 2 μM (percent inhibition of virus-induced cell killing), 2 μM drug concentration
Description: (§1) For the antiviral assay, 40 μL of 1× test concentration of 3-fold serially diluted compound in culture medium with 10% FBS was added to each well of a 384-well plate (10 concentrations) in quadruplicate. MT-4 cells were next mixed with HIV-IIIb at an m.o.i of 0.003 for 1 hour, after which time 35 μL of virus/cell mixture (2000 cells) was immediately added to each well containing 40 μL of diluted compound. The plates were then incubated at 37° C. for 5 days. After 5 days of incubation, 25 μl of 2× concentrated CellTiter-Glo™ Reagent (catalog #G7571, Promega Biosciences, Inc., Madison, Wis.) was added to each well containing MT-4 cells. Cell lysis was carried out by incubating at room temperature for 10 min and then chemiluminescence was read.

[1] = Test B: Cytotoxicity Assay; assay type: cell-based; conditions: human, uninfected MT-4 cells, same protocol as Test A, CellTiter-Glo
Description: as §1
Compound cytotoxicity and the corresponding CC50 values was determined using the same protocol as described in the antiviral assay (Test A) except that uninfected cells were used.

| SMILES | inhibition at 2 µM (HIV-IIIb) [%] | CC50 at 5 days [1] [µM] | % inhibition at 2 μM (percent inhibition of virus-induced cell killing) (HIV-IIIb; 2 μM drug concentration) [%] |
| --- | --- | --- | --- |
| O=C(Cn1nc(C(F)F)c2c1C(F)(F)CCC2(F)F)N[C@@H](Cc1cc(F)cc(F)c1)c1nc(-c2ccc3c(c2)C(=O)NC3)ccc1-c1ccc2c(c1)C(=O)NC2 [Compound 6, (S)—N-(1-(3,6-bis(3-oxoisoindolin-5-yl)pyridin-2-yl)-2-(3,5-difluorophenyl)ethyl)-2-(3-(difluoromethyl)-4,4,7,7-tetrafluoro-4,5,6,7-tetrahydro-1H-indazol-1-yl)acetamide] | 73 | > 53.2 | – |
| O=C(Cn1nc(C(F)F)c2c1C(F)(F)CCC2(F)F)N[C@@H](Cc1cc(F)cc(F)c1)c1ncc(-c2cnc3[nH]ccc3c2)cc1-c1cnc2[nH]ccc2c1 [Compound 11, (S)—N-(1-(3,5-di(1H-pyrrolo[2,3-b]pyridin-5-yl)pyridin-2-yl)-2-(3,5-difluorophenyl)ethyl)-2-(3-(difluoromethyl)-4,4,7,7-tetrafluoro-4,5,6,7-tetrahydro-1H-indazol-1-yl)acetamide] | 66 | > 53.2 | – |
| COc1cc(-c2ccc(-c3ccc4c(c3)C(=O)NC4)c([C@H](Cc3cc(F)cc(F)c3)NC(=O)Cn3nc(C(F)F)c4c3C(F)(F)CCC4(F)F)n2)ccn1 [Compound 8C, (S)-2-(3-(difluoromethyl)-4,4,7,7-tetrafluoro-4,5,6,7-tetrahydro-1H-indazol-1-yl)-N-(2-(3,5-difluorophenyl)-1-(2′-methoxy-5-(3-oxoisoindolin-5-yl)-[2,4′-bipyridin]-6-yl)ethyl)acetamide] | 86 | 22 | – |
| O=C(Cn1nc(C(F)F)c2c1C(F)(F)CCC2(F)F)N[C@@H](Cc1cc(F)cc(F)c1)c1nc(-c2c[nH]nn2)ccc1-c1cnc2[nH]ccc2c1 [Compound 16C] | – | – | 65 |
| O=C(Cn1nc(C(F)F)c2c1C(F)(F)CCC2(F)F)N[C@@H](Cc1cc(F)cc(F)c1)c1nc(-c2cnc3[nH]ccc3c2)ccc1-c1cnc2[nH]ccc2c1 [Compound 7, (S)—N-(1-(3,6-bis(1H-pyrrolo[2,3-b]pyridin-5-yl)pyridin-2-yl)-2-(3,5-difluorophenyl)ethyl)-2-(3-(difluoromethyl)-4,4,7,7-tetrafluoro-4,5,6,7-tetrahydro-1H-indazol-1-yl)acetamide] | 92 | 5.66 | – |
| O=C(Cn1nc(C(F)F)c2c1C(F)(F)CCC2(F)F)N[C@@H](Cc1cc(F)cc(F)c1)c1nc(-c2cc[nH]c(=O)c2)ccc1-c1ccc2c(c1)C(=O)NC2 [Compound 12, (S)-2-(3-(difluoromethyl)-4,4,7,7-tetrafluoro-4,5,6,7-tetrahydro-1H-indazol-1-yl)-N-(2-(3,5-difluorophenyl)-1-(2′-oxo-5-(3-oxoisoindolin-5-yl)-1′,2′-dihydro-[2,4′-bipyridin]-6-yl)ethyl)acetamide] | 58 | > 53.2 | – |
| CC(C)(O)C#Cc1ccc(-c2cccc3c(=O)[nH]c(=O)[nH]c23)c([C@H](Cc2cc(F)cc(F)c2)NC(=O)Cn2nc(C(F)(F)F)c3c2C(F)(F)[C@@H]2C[C@H]32)n1 [Compound 17, 2-((3bS,4aR)-5,5-difluoro-3-(trifluoromethyl)-3b,4,4a,5-tetrahydro-1H-cyclopropa[3,4]cyclopenta[1,2-c]pyrazol-1-yl)-N—((S)-2-(3,5-difluorophenyl)-1-(3-(2,4-dioxo-1,2,3,4-tetrahydroquinazolin-8-yl)-6-(3-hydroxy-3-methylbut-1-ynyl)pyridin-2-yl)ethyl)acetamide] | 80 | 12.6 | – |
| CC(C)(O)C#Cc1ccc(-c2cccc3c(=O)[nH]cnc23)c([C@H](Cc2cc(F)cc(F)c2)NC(=O)Cn2nc(C(F)(F)F)c3c2C(F)(F)[C@@H]2C[C@H]32)n1 [Compound 2, 2-((3bS,4aR)-5,5-difluoro-3-(trifluoromethyl)-3b,4,4a,5-tetrahydro-1H-cyclopropa[3,4]cyclopenta[1,2-c]pyrazol-1-yl)-N—((S)-2-(3,5-difluorophenyl)-1-(6-(3-hydroxy-3-methylbut-1-yn-1-yl)-3-(4-oxo-3,4-dihydroquinazolin-8-yl)pyridin-2-yl)ethyl)acetamide] | 90 | 14.3 | – |
| NC(=O)c1cc(-c2ccc(-c3ccc(F)c(C(N)=O)c3)c([C@H](Cc3cc(F)cc(F)c3)NC(=O)Cn3nc(C(F)F)c4c3C(F)(F)CCC4(F)F)n2)ccc1F [Compound 5G, (S)-5,5′-(6-(1-(2-(3-(difluoromethyl)-4,4,7,7-tetrafluoro-4,5,6,7-tetrahydro-1H-indazol-1-yl)acetamido)-2-(3,5-difluorophenyl)ethyl)pyridine-2,5-diyl)bis(2-fluorobenzamide)] | – | > 53.2 | – |
| CC(C)(O)C#Cc1cnc([C@H](Cc2cc(F)cc(F)c2)NC(=O)Cn2nc(C(F)F)c3c2C(F)(F)CCC3(F)F)c(-c2ccc3c(c2)C(=O)NC3)c1 [Compound 4H, (S)-2-(3-(difluoromethyl)-4,4,7,7-tetrafluoro-4,5,6,7-tetrahydro-1H-indazol-1-yl)-N-(2-(3,5-difluorophenyl)-1-(5-(3-hydroxy-3-methylbut-1-ynyl)-3-(3-oxoisoindolin-5-yl)pyridin-2-yl)ethyl)acetamide] | 74 | 22.8 | – |
| CC(C)(O)C#Cc1ccc(-c2cccc3c2CNC3=O)c([C@H](Cc2cc(F)cc(F)c2)NC(=O)Cn2nc(C(F)(F)F)c3c2C(F)(F)[C@@H]2C[C@H]32)n1 [Compound 14E, 2-((3bS,4aR)-5,5-difluoro-3-(trifluoromethyl)-3b,4,4a,5-tetrahydro-1H-cyclopropa[3,4]cyclopenta[1,2-c]pyrazol-1-yl)-N—((S)-2-(3,5-difluorophenyl)-1-(6-(3-hydroxy-3-methylbut-1-yn-1-yl)-3-(1-oxoisoindolin-4-yl)pyridin-2-yl)ethyl)acetamide] | 89 | 6.82 | – |
| CC(C)(O)C#Cc1ccc(-c2ccc(F)c(C(N)=O)c2)c([C@H](Cc2cc(F)cc(F)c2)NC(=O)Cn2nc(C(F)(F)F)c3c2C(F)(F)[C@@H]2C[C@H]32)n1 [Compound 18, 5-(2-((S)-1-(2-((3bS,4aR)-5,5-difluoro-3-(trifluoromethyl)-3b,4,4a,5-tetrahydro-1H-cyclopropa[3,4]cyclopenta[1,2-c]pyrazol-1-yl)acetamido)-2-(3,5-difluorophenyl)ethyl)-6-(3-hydroxy-3-methylbut-1-yn-1-yl)pyridin-3-yl)-2-fluorobenzamide] | – | 6.93 | – |
| O=C(Cn1nc(C(F)F)c2c1C(F)(F)CCC2(F)F)N[C@@H](Cc1cc(F)cc(F)c1)c1ncc(-c2ccc3c(c2)C(=O)NC3)cc1-c1ccc2c(c1)C(=O)NC2 [Compound 10B, (S)—N-(1-(3,5-bis(3-oxoisoindolin-5-yl)pyridin-2-yl)-2-(3,5-difluorophenyl)ethyl)-2-(3-(difluoromethyl)-4,4,7,7-tetrafluoro-4,5,6,7-tetrahydro-1H-indazol-1-yl)acetamide] | 85 | > 53.2 | – |
| CC(C)(O)C#Cc1ccc(-c2ccc3c(c2)C(=O)NC32CC2)c([C@H](Cc2cc(F)cc(F)c2)NC(=O)Cn2nc(C(F)(F)F)c3c2C(F)(F)[C@@H]2C[C@H]32)n1 [Compound 3D, 2-((3bS,4aR)-5,5-difluoro-3-(trifluoromethyl)-3b,4,4a,5-tetrahydro-1H-cyclopropa[3,4]cyclopenta[1,2-c]pyrazol-1-yl)-N—((S)-2-(3,5-difluorophenyl)-1-(6-(3-hydroxy-3-methylbut-1-yn-1-yl)-3-(3′-oxospiro[cyclopropane-1,1′-isoindolin]-5′-yl)pyridin-2-yl)ethyl)acetamide] | 82 | 4.15 | – |
| NC(=O)c1ccc(-c2cnc3[nH]ccc3c2)c([C@H](Cc2cc(F)cc(F)c2)NC(=O)Cn2nc(C(F)F)c3c2C(F)(F)CCC3(F)F)n1 [Compound 1B, (S)-6-(1-(2-(3-(difluoromethyl)-4,4,7,7-tetrafluoro-4,5,6,7-tetrahydro-1H-indazol-1-yl)acetamido)-2-(3,5-difluorophenyl)ethyl)-5-(1H-pyrrolo[2,3-b]pyridin-5-yl)picolinamide] | 77 | 8.57 | – |
| CC(C)(O)C#Cc1ccc(-c2ccc3c(c2)C(=O)NC3)c([C@H](Cc2cc(F)cc(F)c2)NC(=O)Cn2nc(C(F)F)c3c2C(F)(F)CCC3(F)F)n1 [Compound 9B, (S)-2-(3-(difluoromethyl)-4,4,7,7-tetrafluoro-4,5,6,7-tetrahydro-1H-indazol-1-yl)-N-(2-(3,5-difluorophenyl)-1-(6-(3-hydroxy-3-methylbut-1-yn-1-yl)-3-(3-oxoisoindolin-5-yl)pyridin-2-yl)ethyl)acetamide] | 95 | 14.6 | – |
| O=C(Cn1nc(C(F)F)c2c1C(F)(F)CCC2(F)F)N[C@@H](Cc1cc(F)cc(F)c1)c1nc(-c2cc[nH]c(=O)c2)ccc1-c1cc[nH]c(=O)c1 [Compound 13, (S)-2-(3-(difluoromethyl)-4,4,7,7-tetrafluoro-4,5,6,7-tetrahydro-1H-indazol-1-yl)-N-(2-(3,5-difluorophenyl)-1-(2,2″-dioxo-1,1″,2,2″-tetrahydro-[4,2′:5′,4″-terpyridin]-6′-yl)ethyl)acetamide] | 0 | > 53.2 | – |
